Read-outs that look alike come from different tables or passages of the source.
Tests used:
rat mGlu2 receptor = rat mGlu2 receptor (Rattus norvegicus (Rat), UniProt P31421); assay: mGlu2 in vitro GIRK thallium flux assay; assay type: cell-based; conditions: NAM, EC80 glutamate, HEK-293 GIRK cells
Method: (§1) All cell culture reagents were purchased from Invitrogen Corp. (Carlsbad, Calif.) unless otherwise noted. Compound activity at the group II (mGlu2 and mGlu3) mGlus was assessed using thallium flux through GIRK channels. Briefly, cells were plated into 384-well, black-walled, clear-bottomed poly-D-lysine-coated plates at a density of 15,000 cells/20 μL/well in DMEM containing 10% dialyzed FBS, 20 mM HEPES, and 100 units/mL penicillin/streptomycin (assay media). Plated cells were incubated overnight at 37° C. in the presence of 5% CO2. […] Cells were incubated for 1 h at room temperature, and the dye exchanged to assay buffer using an ELX405, leaving 20 μL/well. Test compounds were diluted to 2 times their final desired concentration in assay buffer (0.3% DMSO final concentration). […] Cell plates and compound plates were loaded onto a kinetic imaging plate reader (FDSS 6000 or 7000; Hamamatsu Corporation, Bridgewater, N.J.). Appropriate baseline readings were taken (10 images at 1 Hz; excitation, 470±20 nm; emission, 540±30 nm) and test compounds were added in a 20 μL volume and incubated for either 2.5 min or 60 min as indicated before the addition of 10 μL of thallium buffer with or without agonist. After the addition of agonist, data were collected for approximately an additional 2.5 min. Data were analyzed using Excel (Microsoft Corp, Redmond, Wash.). The slope of the fluorescence increase beginning 5 s after thallium/agonist addition and ending 15 s after thallium/agonist addition was calculated, corrected to vehicle and maximal agonist control slope values, and plotted in using either XLfit (ID Business Solutions Ltd) or Prism software (GraphPad Software, San Diego, Calif.) to generate concentration-response curves. Potencies were calculated from fits using a four-point parameter logistic equation. For concentration-response curve experiments, compounds were serially diluted 1:3 into 10 point concentration response curves and were transferred to daughter plates using an Echo acoustic plate reformatter (Labcyte, Sunnyvale, Calif.). Test compounds were applied and followed by EC80 concentrations of glutamate.

rat mGlu3 receptor = rat mGlu3 receptor (Rattus norvegicus (Rat), UniProt P31422); assay: mGlu3 in vitro GIRK thallium flux assay; assay type: cell-based; conditions: NAM; 2.5 min compound incubation; EC80 glutamate; HEK-293 GIRK cells
Chain of rat mGlu3 receptor (P31422 23-879): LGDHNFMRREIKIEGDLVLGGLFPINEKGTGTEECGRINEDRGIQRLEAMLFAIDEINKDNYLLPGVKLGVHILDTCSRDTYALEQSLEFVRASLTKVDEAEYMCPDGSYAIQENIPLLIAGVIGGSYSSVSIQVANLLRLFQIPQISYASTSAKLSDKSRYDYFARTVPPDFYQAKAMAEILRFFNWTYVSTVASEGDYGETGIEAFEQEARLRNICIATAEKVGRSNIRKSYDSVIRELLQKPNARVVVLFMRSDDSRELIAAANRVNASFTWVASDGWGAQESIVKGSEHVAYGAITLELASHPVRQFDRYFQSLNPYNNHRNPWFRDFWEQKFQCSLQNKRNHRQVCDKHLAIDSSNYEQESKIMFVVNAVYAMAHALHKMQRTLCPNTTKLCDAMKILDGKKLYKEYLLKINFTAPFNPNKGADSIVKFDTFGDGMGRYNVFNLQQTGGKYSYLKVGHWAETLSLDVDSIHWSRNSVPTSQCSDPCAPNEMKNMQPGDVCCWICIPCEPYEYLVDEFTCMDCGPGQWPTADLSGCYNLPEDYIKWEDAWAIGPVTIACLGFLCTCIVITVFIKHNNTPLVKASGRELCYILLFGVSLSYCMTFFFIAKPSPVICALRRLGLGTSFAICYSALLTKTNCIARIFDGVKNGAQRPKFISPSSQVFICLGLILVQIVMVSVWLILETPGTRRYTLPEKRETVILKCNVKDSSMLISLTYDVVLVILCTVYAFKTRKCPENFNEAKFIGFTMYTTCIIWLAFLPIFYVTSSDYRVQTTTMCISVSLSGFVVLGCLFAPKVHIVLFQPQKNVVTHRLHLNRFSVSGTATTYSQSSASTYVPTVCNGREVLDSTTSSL
Method: as §1

[1] = 2.5 min compound incubation, read-out: mGlu2 EC50 (μM) (2.5 min)
[2] = mGlu2 EC50 (μM) (60 min), 60 min compound incubation
[3] = read-out: mGlu2 EC50 (μM) (60 min), 60 min compound incubation

Chain of rat mGlu2 receptor (P31421 19-872): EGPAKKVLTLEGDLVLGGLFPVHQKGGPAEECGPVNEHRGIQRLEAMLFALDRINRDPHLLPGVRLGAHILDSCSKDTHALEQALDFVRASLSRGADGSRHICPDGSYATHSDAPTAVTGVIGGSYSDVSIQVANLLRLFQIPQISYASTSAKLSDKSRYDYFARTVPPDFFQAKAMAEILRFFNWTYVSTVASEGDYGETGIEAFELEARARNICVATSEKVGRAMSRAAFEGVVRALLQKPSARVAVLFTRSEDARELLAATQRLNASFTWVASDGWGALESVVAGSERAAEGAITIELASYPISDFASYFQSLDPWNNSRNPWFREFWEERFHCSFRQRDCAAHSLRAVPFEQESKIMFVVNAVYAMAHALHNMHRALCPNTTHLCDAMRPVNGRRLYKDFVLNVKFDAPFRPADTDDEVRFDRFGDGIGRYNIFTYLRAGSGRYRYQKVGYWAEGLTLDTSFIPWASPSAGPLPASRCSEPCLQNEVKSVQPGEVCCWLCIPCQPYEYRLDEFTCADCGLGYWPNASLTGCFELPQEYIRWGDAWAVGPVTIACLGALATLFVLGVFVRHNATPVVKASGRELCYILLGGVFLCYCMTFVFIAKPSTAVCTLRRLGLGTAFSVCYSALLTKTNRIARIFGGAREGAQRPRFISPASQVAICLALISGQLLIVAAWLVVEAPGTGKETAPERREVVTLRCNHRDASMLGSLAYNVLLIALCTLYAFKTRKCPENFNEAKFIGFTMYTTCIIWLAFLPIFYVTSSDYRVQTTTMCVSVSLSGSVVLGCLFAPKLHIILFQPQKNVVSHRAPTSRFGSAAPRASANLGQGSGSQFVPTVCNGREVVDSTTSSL

Row | Compound | EC50 (rat mGlu2 receptor; [1]) | EC50 (rat mGlu2 receptor; [2]) | EC50 (rat mGlu3 receptor) | EC50 (rat mGlu2 receptor; [3])
1 | ON=Cc1cc(-c2cccc(-c3csc(-c4ccccc4)n3)c2)ccc1F [Example 20, 4-Fluoro-3′-(2-phenylthiazol-4-yl)biphenyl-3-carbaldehyde oxime] | > 30 µM | > 10 µM | > 30 µM | 
2 | O=C(O)c1ccccc1-c1cccc(-c2csc(-c3ccccc3)n2)c1 [Example 25, 3′-(2-Phenylthiazol-4-yl)biphenyl-2-carboxylic Acid] | > 10 µM |  | > 10 µM | > 10 µM
3 | O=C(O)c1ccc(-c2cccc(-c3csc(-c4ccccc4)n3)c2)c(Cl)c1 [Example 26, 2-Chloro-3′-(2-phenylthiazol-4-yl)biphenyl-4-carboxylic Acid] | > 30 µM | > 30 µM | > 10 µM | 
4 | O=C(O)c1cc(-c2csc(-c3ccccc3)n2)ccc1F [Example 27, 2-Fluoro-5-(2-phenylthiazol-4-yl)benzoic acid] | > 10 µM | > 30 µM | > 30 µM | 
5 | O=C(O)c1cccc(-c2cccc(-c3csc(-c4ccc5c(c4)OCCO5)n3)c2)c1 [Example 34, 3-[3-(2-(2H,3H-benzo[e]1,4-dioxin-6-yl)-1,3-thiazol-4-yl)phenyl]benzoic acid] | > 10 µM |  | > 10 µM | 0.28 µM
6 | O=C(O)c1cccc(-c2cccc(-c3csc(/C=C/c4ccccc4)n3)c2)c1 [Example 36, (E)-3′-(2-Styrylthiazol-4-yl)biphenyl-3-carboxylic Acid] | 3.47 µM | > 10 µM | > 10 µM | 
7 | c1ccc(-c2nc(-c3cccc(-c4cccc(-c5nn[nH]n5)c4)c3)cs2)cc1 [Example 37, 4-(3′-(2H-Tetrazol-5-yl)biphenyl-3-yl)-2-phenylthiazole] | 2.98 µM |  | > 10 µM | 1.72 µM
8 | O=C(O)c1cccc(-c2cccc(-c3cc(-c4ccccc4)sn3)c2)c1 [Example 44, 3′-(5-Phenylisothiazol-3-yl)-[1,1′-biphenyl]-3-carboxylic Acid] | 0.68 µM |  | > 10 µM | 0.18 µM
9 | O=C(O)c1cc(-c2cccc(-c3csc(-c4ccccc4)c3)c2)ccc1F [Example 45, 4-Fluoro-3′-(5-phenylthiophen-3-yl)-[1,1′-biphenyl]-3-carboxylic Acid] | > 10 µM | > 10 µM | > 10 µM | 
10 | O=C(O)c1cccc(-c2cccc(-c3coc(-c4ccccc4)c3)c2)c1 [Example 46, 3′-(5-phenylfuran-3-yl)biphenyl-3-carboxylic Acid] | > 10 µM | > 10 µM | > 30 µM | 
11 | O=C(O)c1cccc(-c2cccc(-c3coc(-c4ccccc4)n3)c2)c1 [Example 47, 3′-(2-Phenyloxazol-4-yl)-[1,1′-biphenyl]-3-carboxylic Acid] | > 10 µM | > 10 µM | > 30 µM | 
12 | O=C(O)c1cccc(-c2cccc(-c3nc(-c4ccccc4)n(-c4ccccc4)n3)c2)c1 [Example 49A, 3′-(1,5-Diphenyl-1H-1,2,4-triazol-3-yl)-[1,1′-biphenyl]-3-carboxylic Acid] | > 10 µM | > 10 µM | 1.36 µM | 

Now from value to compound, other results behind:

Row | EC50 (rat mGlu2 receptor; [1]) | EC50 (rat mGlu2 receptor; [2]) | EC50 (rat mGlu3 receptor) | Compound | EC50 (rat mGlu2 receptor; [3])
13 | > 10 µM | > 10 µM | > 10 µM | O=C(O)c1ccc(-c2cccc(-c3csc(-c4ccccc4)n3)c2)cc1Cl [Example 21, 3-Chloro-3′-(2-phenylthiazol-4-yl)biphenyl-4-carboxylic Acid] | 
14 | > 30 µM | > 10 µM | > 30 µM | O=C(O)c1ccc(-c2cccc(-c3csc(-c4ccccc4)n3)c2)cc1 [Example 22, 3′-(2-Phenylthiazol-4-yl)biphenyl-4-carboxylic Acid] | 
15 | 1.81 µM | 1.35 µM | > 10 µM | COc1ccc(C(=O)O)cc1-c1cccc(-c2csc(-c3ccccc3)n2)c1 [Example 23, 6-Methoxy-3′-(2-phenylthiazol-4-yl)biphenyl-3-carboxylic Acid] | 
16 | 0.57 µM | 0.8 µM | 0.79 µM | O=C(O)c1cc(-c2cccc(-c3csc(-c4ccccc4)n3)c2)ccc1Cl [Example 24, 4-Chloro-3′-(2-phenylthiazol-4-yl)biphenyl-3-carboxylic Acid] | 
17 |  | 0.2 µM | > 10 µM | O=C(O)c1cccc(-c2cccc(-c3csc(-c4ccccc4)n3)c2)c1 [Example 28, 3′-(2-Phenylthiazol-4-yl)biphenyl-3-carboxylic Acid] | 
18 | 2.58 µM | 1.1 µM | 4.02 µM | COc1ccc(-c2nc(-c3cccc(-c4cccc(C(=O)O)c4)c3)cs2)cc1OC [Example 29, 3-{3-[2-(3,4-Dimethoxyphenyl)-1,3-thiazol-4-yl]phenyl}benzoic acid] | 
19 | > 10 µM | > 10 µM | > 30 µM | O=C(O)c1cccc(-c2cccc(-c3csc(-c4cccc5ccccc45)n3)c2)c1 [Example 30] | 
20 | 1.23 µM | 0.67 µM | 3.09 µM | COc1ccc(-c2nc(-c3cccc(-c4cccc(C(=O)O)c4)c3)cs2)cc1 [Example 31, 3-{3-[2-(4-Methoxyphenyl)-1,3-thiazol-4-yl]phenyl}benzoic acid] | 
21 | > 10 µM | 4.98 µM | > 30 µM | O=C(O)c1cccc(-c2cccc(-c3csc(-c4ccc5ccccc5c4)n3)c2)c1 [Example 32, 3-[3-(2-(2-Naphthyl)-1,3-thiazol-4-yl)phenyl]benzoic acid] | 
22 | 4.83 µM | > 10 µM | > 10 µM | O=C(O)c1cccc(-c2cccc(-c3csc(-c4cccc(C(=O)O)c4)n3)c2)c1 [Example 33, 3-{4-[3-(3-Carboxyphenyl)phenyl]-1,3-thiazol-2-yl}benzoic acid] | 
23 | 3.83 µM | 0.27 µM | > 10 µM | O=C(O)c1cccc(-c2cccc(-c3csc(-c4ccc(Cl)nc4)n3)c2)c1 [Example 35, 3′-(2-(6-Chloropyridin-3-yl)thiazol-4-yl)biphenyl-3-carboxylic Acid] | 
24 | 0.32 µM | 0.05 µM | 2.28 µM | O=C(O)c1cccc(-c2cccc(-c3nsc(-c4ccccc4)n3)c2)c1 [Example 39, 3′-(5-Phenyl-1,2,4-thiadiazol-3-yl)biphenyl-3-carboxylic Acid] | 
25 | 0.4 µM | 0.1 µM | 2.78 µM | O=C(O)c1cc(F)cc(-c2cccc(-c3nsc(-c4ccccc4)n3)c2)c1 [Example 40, 5-Fluoro-3′-(5-phenyl-1,2,4-thiadiazol-3-yl)biphenyl-3-carboxylic Acid] | 
26 | 0.89 µM | 0.11 µM | > 10 µM | O=C(O)c1ccc(F)c(-c2cccc(-c3nsc(-c4ccccc4)n3)c2)c1 [Example 41, 6-Fluoro-3′-(5-phenyl-1,2,4-thiadiazol-3-yl)biphenyl-3-carboxylic Acid] | 
27 | 3.63 µM | 3.71 µM | > 10 µM | O=C(O)c1cc(-c2cccc(-c3nsc(-c4ccoc4)n3)c2)ccc1F [Example 42, 4-Fluoro-3′-(5-(furan-3-yl)-1,2,4-thiadiazol-3-yl)biphenyl-3-carboxylic Acid] | 
28 | 1.33 µM | 0.79 µM | > 10 µM | O=C(O)c1cccc(-c2cccc(-c3noc(-c4ccccc4)n3)c2)c1 [Example 48, 3′-(5-Phenyl-1,2,4-oxadiazol-3-yl)-[1,1′-biphenyl]-3-carboxylic Acid] | 

Source: US9969726B2, “Metabotropic glutamate receptor negative allosteric modulators (NAMS) and uses thereof” (Sanford-Burnham Medical Research Institute, priority 2014, dated 2018)
